Assay results from ChEMBL document CHEMBL1201862, “PubChem BioAssay data set” (2004).
Activity calls are given as the source filed them.

How the values were obtained:
[1] = Luminescence Cell-Based Dose Confirmation HTS to Identify Activators of 5'UTR Stem-Loop Driven Alpha-Synuclein mRNA Translation in H4 Neuroglioblastoma Cells. [Related pubchem assays: 1829 (Project Summary), 1814 (Primary HTS)]; format: functional
[2] = Luminescence Cell-Based Dose Response HTS to Identify Activators of Luciferase Translation or Activity in H4 […] Cells. [Related pubchem assays: 1829 (Project Summary), 1814 (Primary HTS)]; format: functional
H4 = test: Luminescence Cell-Based Dose Response HTS to Identify Activators of 5'UTR Stem-Loop Driven Prion Protein mRNA Translation in H4 Neuroglioblastoma Cells. [Related pubchem assays: 1829 (Project Summary), 1814 (Primary HTS)]; format: functional; conditions: Homo sapiens
cells [3] = test: cells
cells [4] = conditions: HEK293;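 note: cells exposed to compound for 48 hours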
[5] = test system: Streptococcus sp. 'group A'; test: Streptococcus pyogenes SK(-)GAS viability under kanamycin – luminescence, BacTiterGlo, confirmation, counter-screen for streptokinase expression inhibitor project, dose response (AID 1900); format: functional, organism-based
Streptokinase A = biological target: T1, Streptokinase A (Streptococcus pyogenes serotype M1, UniProt P10520); test: viability-normalized secreted streptokinase activity reduction – plasminogen activation absorbance, OD405, dose response (AID 1914); format: functional, Streptococcus pyogenes M1 GAS;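 note: secreted streptokinase activity via plasminogen activation per viability signal from cell pellet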
T1 sequence (P10520 whole entry): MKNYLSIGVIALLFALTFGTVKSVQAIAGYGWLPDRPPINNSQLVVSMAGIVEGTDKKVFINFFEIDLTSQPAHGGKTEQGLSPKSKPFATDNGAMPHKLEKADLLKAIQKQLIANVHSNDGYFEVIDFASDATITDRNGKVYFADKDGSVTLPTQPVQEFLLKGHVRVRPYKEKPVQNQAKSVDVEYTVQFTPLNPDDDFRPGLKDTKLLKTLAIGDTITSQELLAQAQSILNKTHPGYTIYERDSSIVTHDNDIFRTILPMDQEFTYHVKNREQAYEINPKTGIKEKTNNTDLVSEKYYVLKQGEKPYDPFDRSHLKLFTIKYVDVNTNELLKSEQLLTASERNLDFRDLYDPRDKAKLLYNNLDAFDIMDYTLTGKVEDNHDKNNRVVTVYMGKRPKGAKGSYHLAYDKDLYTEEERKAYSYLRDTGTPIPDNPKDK

Streptococcus = test: GAS UMAA2166 growth inhibition – luminescence, BacTiterGlo, counter-screen for streptokinase expression inhibitor project, dose response (AID 1915); format: functional, organism-based;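 note: potency for reduction of bacterial viability or growth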
Caspase-6 = Caspase-6 (Homo sapiens, UniProt P55212); test: inhibition of CASP6 peptide cleavage – biochemical, VEID-R110 fluorescence, cherry-pick, dose response (AID 720632)
[6] = biological target: T2, Methionyl-tRNA synthetase, putative (Trypanosoma brucei brucei, UniProt Q38C91); format: functional, Trypanosoma brucei brucei strain 927/4 GUTat10.1
[7] = Counterscreen for inhibitors of Trypanosoma brucei methionyl tRNA synthetase (MetRS): Luminescence-based cell-based high throughput dose response assay to identify compounds that are cytotoxic to Jurkat human T lymphocyte cells.; format: functional
[8] = biological target: T2, Methionyl-tRNA synthetase, putative; format: functional, Trypanosoma brucei brucei strain 927/4 GUTat10.1; remark: listed apart in the source
[9] = Late stage counterscreen for inhibitors of Trypanosoma brucei methionyl tRNA synthetase (MetRS): Luminescence-based cell-based high throughput dose response assay to identify compounds that are cytotoxic to Jurkat human T lymphocyte cells.; format: functional
[10] = biological target: T3, Oxysterols receptor LXR-beta (Homo sapiens, UniProt P55055); format: functional, cell-based;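 note: Cell-based luminescence dose-response assay of agonist activity at LXR, run as a confirmatory counterscreen to a daf-12 agonist screen; HEK293 cells with Gal4-LXR fusion and GAL4-driven luciferase reporter; agonist potency from rising luciferase signal of a Gal4-LXR reporter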
T3 sequence (P55055 whole entry): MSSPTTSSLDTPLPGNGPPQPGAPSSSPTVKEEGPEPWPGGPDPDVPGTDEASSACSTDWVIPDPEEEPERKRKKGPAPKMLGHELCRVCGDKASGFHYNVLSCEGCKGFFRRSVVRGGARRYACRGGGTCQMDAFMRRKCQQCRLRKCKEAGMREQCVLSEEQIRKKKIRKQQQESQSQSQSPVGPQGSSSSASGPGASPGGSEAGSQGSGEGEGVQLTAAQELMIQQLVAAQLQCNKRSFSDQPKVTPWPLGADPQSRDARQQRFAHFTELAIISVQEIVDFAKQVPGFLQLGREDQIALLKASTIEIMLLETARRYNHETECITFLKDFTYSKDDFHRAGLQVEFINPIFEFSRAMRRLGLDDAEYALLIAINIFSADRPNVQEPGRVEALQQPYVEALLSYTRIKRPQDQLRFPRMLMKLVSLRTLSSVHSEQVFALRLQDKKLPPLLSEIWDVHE

cells [11] = test: cells; remark: listed apart in the source
[12] = biological target: Nuclear receptor subfamily 5 group A member 2 (Homo sapiens, UniProt O00482); format: functional, cell-based;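 note: HEK293T cells transfected with LRH-1 and a StAR promoter luciferase reporter; potency for inhibitors that lower LRH-1 driven reporter light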
Steroidogenic factor 1 = Steroidogenic factor 1 (Homo sapiens, UniProt Q13285); test: Counterscreen for inverse agonists of the liver receptor homolog-1 (LRH-1; NR5A2): Luminescence-based cell-based high throughput dose response assay to identify inverse agonists of the Steroidogenic Factor 1 Nuclear Receptor (SF1; NR5A1).; format: functional
[13] = nonselective StAR promoter luciferase inhibitors – cell-based, luminescence, luciferase reporter, counter-screen for LRH-1 inverse agonist project, dose response (AID 651969); format: functional
[14] = dual-tagged ARNT PAS-B bead signal quenchers – biochemical, dry powder, artefact control for ARNT/TACC3 disruptor project, dose response (AID 720564)
Vero [15] = test: cells; format: functional, cell-based; conditions: Chlorocebus sabaeus
Vero [16] = test: cells; format: functional; conditions: Chlorocebus sabaeus
[17] = biological target: T4, Corticotropin-releasing factor receptor 2/Corticotropin-releasing factor-binding protein (Homo sapiens, UniProt P24387+Q13324); test: activators of CRF receptor 2 with binding protein – uHTS hits, confirmation (AID 602473); format: functional; conditions: read-out: EC50_Mean
T4 sequence (Q13324 whole entry): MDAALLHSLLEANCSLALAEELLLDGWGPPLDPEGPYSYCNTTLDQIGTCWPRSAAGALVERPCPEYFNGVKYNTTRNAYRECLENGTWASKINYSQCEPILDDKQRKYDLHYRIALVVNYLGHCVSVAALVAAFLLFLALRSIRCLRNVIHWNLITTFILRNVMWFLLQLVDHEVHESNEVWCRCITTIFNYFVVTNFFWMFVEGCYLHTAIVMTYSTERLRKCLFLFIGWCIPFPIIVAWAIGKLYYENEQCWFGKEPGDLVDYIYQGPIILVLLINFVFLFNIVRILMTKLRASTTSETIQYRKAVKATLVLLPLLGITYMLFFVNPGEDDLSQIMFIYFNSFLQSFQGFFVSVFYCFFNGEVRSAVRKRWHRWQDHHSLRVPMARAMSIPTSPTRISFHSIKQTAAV
T4 sequence (P24387 whole entry): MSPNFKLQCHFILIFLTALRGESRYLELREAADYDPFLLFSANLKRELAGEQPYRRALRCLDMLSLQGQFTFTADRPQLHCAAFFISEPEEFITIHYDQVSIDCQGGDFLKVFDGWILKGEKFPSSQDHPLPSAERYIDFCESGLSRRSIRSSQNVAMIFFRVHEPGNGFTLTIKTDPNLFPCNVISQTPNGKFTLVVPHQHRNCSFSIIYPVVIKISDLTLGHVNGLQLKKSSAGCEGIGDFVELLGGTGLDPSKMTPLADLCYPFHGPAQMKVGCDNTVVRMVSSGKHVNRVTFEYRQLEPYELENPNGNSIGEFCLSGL

[18] = HGIII-sPLA2 enzyme inhibition potency – biochemical, QFRET, IC50, dose response (AID 743457);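 note: green fluorescence rise as the enzyme cleaves BODIPY PC-A2 in liposomes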
HeLa = test: viability loss in HeLa cells – cell-based, ATP luminescence, cherry-pick samples, cytotoxicity control, dose response (AID 687004); format: functional; conditions: Homo sapiens
HEK293 = test: viability loss in HEK293T cells – cell-based, ATP luminescence, cherry-pick samples, cytotoxicity control, dose response (AID 687005); format: functional; conditions: Homo sapiens;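 note: cells exposed to compound for 48 hours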
[19] = HEK293 Cytotoxicity Assay Measured in Cell-Based System Using Plate Reader - 7071-01_Inhibitor_Dose_CherryPick_Activity_Set2.; format: functional
[20] = biological target: Voltage-gated inwardly rectifying potassium channel KCNH2 (Homo sapiens, UniProt Q12809); test: off-target hERG block by TASK1 inhibitor candidates – FluxOR thallium flux, concentration-response, CHO cells, selectivity assay for TASK1 inhibitor project, SAR follow-up (AID 652194); format: functional, cell-based
[21] = biological target: Potassium channel subfamily K member 3 (Homo sapiens, UniProt O14649); test: inhibition of human KCNK3 channel flux – CHO cells, FluxOR thallium flux, SAR follow-up (AID 652212); format: functional
[22] = biological target: T5, High affinity choline transporter 1 (Homo sapiens, UniProt Q9GZV3); test: inhibition of SLC5A7-mediated choline transport – cell-based, HEK-293 hCHT, [3H]-choline uptake, dose response (AID 652177); format: functional
T5 sequence (Q9GZV3 whole entry): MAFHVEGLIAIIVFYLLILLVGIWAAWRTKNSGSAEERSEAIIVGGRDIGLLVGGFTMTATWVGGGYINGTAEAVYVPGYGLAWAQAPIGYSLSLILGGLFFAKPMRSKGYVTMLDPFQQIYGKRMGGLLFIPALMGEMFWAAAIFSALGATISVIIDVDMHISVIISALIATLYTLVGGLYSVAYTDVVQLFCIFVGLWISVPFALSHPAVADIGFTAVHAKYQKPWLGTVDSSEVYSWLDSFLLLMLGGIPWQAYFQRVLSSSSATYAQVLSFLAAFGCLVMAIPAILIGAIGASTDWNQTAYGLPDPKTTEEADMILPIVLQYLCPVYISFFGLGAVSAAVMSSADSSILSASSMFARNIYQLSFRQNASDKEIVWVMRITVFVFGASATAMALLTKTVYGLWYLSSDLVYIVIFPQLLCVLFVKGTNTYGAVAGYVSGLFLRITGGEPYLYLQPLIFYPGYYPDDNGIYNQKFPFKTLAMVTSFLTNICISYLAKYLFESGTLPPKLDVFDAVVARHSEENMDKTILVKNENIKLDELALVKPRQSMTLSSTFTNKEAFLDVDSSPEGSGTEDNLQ

[23] = biological target: Metabotropic glutamate receptor 5 (Rattus norvegicus, UniProt P31424); test: Identification of a glycine sulfonamide based non-MPEP site positive allosteric potentiator (PAM) of mGlu5 (calcium_assay).; format: functional
[24] = suppression of HIF-dependent reporter luminescence – cell-based, dry powder samples, 2158-07, ARNT-TACC3 inhibitor project, dose response (AID 720561); format: functional
[25] = hypoxia HIF reporter signal reduction – HeLa cells, luminescence, dry powder samples, 2158-08, ARNT-TACC3 inhibitor project, dose response (AID 720560); format: functional, cell-based
[26] = disruptors of Keap1/Nrf2 protein interaction – biochemical, fluorescence polarization, dry powder, set 3, dose response (AID 651806)
[27] = kidney cell line viability loss – HEK293T, luminescence plate reader, powder samples, set 4, cytotoxicity control, dose response (AID 651863); format: functional, cell-based; conditions: HEK293
[28] = HeLa cell viability loss – plate reader, dry powder, cytotoxicity control, dose response (AID 651946); format: functional, cell-based
[29] = inhibition of mouse IRAP aminopeptidase activity – biochemical, Leu-AMC fluorescence, cherry-picked samples, set 2, selectivity assay for ERAP1 modulator project, dose response (AID 743340)

T2 sequence (Q38C91 whole entry): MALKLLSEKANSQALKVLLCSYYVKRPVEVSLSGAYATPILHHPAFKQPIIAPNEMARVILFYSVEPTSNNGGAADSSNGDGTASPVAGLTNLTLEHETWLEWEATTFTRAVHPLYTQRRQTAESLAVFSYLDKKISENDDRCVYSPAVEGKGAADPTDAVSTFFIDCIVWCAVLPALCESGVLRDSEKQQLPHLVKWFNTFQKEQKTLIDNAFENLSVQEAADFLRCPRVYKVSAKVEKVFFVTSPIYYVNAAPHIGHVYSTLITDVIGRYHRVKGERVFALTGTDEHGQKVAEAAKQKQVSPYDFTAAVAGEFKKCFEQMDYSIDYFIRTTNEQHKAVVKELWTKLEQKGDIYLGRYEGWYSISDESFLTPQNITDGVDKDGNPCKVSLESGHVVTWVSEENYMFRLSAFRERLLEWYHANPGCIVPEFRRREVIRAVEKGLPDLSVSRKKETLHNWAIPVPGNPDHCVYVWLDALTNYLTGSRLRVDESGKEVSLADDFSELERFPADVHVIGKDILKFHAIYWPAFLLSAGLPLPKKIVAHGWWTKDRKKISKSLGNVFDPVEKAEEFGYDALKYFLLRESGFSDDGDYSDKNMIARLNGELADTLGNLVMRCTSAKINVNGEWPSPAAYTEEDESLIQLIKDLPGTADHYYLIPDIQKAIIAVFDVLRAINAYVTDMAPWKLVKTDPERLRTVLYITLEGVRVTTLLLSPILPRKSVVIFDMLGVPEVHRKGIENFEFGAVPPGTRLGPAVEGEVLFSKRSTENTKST
Sequence of Caspase-6 (P55212 24-179 limits assumed): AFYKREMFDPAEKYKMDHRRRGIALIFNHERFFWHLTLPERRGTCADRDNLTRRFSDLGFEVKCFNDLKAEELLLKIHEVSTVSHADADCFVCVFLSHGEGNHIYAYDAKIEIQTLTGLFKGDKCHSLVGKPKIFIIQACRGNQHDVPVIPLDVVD
Sequence of Caspase-6 (P55212 194-293 limits assumed): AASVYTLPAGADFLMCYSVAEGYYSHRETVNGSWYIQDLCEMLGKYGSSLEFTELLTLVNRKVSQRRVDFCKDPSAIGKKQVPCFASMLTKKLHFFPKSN
Sequence of Nuclear receptor subfamily 5 group A member 2 (O00482 whole entry): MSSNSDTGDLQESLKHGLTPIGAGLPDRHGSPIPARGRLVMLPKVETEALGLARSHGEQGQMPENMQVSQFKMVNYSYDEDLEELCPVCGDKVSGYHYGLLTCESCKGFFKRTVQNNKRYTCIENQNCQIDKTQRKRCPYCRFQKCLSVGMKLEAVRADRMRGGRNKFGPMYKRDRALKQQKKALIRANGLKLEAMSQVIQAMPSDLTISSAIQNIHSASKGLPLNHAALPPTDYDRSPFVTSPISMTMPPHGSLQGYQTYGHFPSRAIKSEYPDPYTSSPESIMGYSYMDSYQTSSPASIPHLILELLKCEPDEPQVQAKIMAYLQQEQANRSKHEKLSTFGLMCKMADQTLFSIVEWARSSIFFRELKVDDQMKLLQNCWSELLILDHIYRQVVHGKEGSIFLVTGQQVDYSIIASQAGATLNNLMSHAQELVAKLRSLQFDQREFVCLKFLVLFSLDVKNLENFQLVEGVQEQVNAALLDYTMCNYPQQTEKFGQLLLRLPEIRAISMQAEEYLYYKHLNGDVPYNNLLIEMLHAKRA
Sequence of Metabotropic glutamate receptor 5 (P31424 whole entry): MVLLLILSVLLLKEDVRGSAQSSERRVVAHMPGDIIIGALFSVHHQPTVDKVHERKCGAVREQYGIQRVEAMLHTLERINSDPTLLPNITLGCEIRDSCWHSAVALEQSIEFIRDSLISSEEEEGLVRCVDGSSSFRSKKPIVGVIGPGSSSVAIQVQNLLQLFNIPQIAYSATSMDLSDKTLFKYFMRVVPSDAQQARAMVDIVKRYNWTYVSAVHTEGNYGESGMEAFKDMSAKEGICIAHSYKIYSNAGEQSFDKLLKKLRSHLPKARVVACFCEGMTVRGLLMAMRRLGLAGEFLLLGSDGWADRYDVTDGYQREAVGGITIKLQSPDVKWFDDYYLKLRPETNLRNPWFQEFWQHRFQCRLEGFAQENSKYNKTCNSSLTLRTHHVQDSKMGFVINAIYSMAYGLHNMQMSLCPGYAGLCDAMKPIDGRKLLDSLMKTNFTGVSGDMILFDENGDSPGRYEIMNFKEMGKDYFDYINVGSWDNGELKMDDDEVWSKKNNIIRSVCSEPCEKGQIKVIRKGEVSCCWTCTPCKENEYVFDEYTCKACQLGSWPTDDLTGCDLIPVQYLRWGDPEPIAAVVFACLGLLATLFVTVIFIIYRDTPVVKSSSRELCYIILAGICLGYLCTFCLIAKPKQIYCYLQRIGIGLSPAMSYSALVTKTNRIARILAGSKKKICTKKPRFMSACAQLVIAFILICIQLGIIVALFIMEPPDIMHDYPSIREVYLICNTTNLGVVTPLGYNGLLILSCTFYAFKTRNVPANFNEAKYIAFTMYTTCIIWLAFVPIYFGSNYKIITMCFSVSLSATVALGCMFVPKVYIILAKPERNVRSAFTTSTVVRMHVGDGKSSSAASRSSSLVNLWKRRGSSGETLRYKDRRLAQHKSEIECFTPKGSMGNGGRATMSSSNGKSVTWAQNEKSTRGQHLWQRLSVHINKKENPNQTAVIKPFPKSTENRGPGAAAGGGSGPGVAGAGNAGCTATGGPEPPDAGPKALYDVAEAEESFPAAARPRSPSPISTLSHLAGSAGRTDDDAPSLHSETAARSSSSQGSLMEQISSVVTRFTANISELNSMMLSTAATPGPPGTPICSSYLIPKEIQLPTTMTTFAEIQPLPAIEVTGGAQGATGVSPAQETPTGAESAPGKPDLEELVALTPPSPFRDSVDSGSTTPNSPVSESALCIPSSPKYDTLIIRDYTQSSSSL
Sequence of Voltage-gated inwardly rectifying potassium channel KCNH2 (Q12809 whole entry): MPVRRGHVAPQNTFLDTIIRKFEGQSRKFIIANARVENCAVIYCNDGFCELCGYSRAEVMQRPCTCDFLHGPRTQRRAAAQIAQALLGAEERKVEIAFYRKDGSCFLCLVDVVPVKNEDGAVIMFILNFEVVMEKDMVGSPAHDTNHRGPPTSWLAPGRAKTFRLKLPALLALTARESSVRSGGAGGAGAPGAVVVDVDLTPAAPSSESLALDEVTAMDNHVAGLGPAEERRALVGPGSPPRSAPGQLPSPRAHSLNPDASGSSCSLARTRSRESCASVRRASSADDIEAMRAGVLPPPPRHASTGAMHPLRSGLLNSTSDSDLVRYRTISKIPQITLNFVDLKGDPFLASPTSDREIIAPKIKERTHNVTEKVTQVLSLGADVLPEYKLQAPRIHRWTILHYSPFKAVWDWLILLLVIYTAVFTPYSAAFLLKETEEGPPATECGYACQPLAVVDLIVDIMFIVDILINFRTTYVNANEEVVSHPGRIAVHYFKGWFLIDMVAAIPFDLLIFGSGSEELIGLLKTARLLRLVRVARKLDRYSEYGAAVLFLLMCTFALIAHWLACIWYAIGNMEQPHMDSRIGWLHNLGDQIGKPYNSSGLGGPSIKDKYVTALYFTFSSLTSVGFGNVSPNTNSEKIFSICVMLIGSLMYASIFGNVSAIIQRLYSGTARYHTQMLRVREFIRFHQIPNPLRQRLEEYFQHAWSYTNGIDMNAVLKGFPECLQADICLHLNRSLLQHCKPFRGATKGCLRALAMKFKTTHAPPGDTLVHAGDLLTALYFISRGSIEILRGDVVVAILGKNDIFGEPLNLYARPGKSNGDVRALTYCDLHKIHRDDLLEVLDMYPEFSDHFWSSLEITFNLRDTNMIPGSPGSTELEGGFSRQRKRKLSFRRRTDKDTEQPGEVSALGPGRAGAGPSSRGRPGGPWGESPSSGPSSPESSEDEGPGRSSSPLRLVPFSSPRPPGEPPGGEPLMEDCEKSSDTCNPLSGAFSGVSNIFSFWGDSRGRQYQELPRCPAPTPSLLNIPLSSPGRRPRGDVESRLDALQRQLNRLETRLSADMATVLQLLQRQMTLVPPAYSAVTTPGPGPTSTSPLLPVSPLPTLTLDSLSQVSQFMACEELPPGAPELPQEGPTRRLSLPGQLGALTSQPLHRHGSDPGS
Sequence of Potassium channel subfamily K member 3 (O14649 whole entry): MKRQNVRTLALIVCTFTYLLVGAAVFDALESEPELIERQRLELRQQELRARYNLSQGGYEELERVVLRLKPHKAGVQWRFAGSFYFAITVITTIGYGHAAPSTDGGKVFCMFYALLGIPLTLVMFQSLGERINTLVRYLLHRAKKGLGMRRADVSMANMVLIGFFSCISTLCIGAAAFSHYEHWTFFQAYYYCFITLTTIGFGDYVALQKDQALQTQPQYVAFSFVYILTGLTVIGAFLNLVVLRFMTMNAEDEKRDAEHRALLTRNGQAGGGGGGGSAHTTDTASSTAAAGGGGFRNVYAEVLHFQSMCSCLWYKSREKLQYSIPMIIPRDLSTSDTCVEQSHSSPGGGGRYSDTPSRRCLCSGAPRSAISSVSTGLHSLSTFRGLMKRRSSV
Sequence of Steroidogenic factor 1 (Q13285 whole entry): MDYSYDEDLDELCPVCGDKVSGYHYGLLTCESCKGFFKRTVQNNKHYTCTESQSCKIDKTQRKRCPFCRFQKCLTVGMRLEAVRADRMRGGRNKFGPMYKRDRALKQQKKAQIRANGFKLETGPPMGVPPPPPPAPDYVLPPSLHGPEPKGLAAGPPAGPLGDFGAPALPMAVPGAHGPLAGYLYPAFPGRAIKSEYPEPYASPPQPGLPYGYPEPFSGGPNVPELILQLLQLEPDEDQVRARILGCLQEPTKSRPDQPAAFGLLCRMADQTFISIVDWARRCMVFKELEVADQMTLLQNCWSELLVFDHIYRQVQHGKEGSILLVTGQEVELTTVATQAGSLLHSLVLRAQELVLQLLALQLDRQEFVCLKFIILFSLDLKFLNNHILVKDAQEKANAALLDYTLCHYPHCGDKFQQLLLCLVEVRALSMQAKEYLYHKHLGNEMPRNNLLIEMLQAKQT

Compound: CC1CCN(S(=O)(=O)N2CCC(C(=O)NC3CCCC3)CC2)CC1
- EC50 [1]: > 120 µM (not active)
- EC50 [2]: > 120 µM (not active)
- EC50 (H4): > 120 µM (not active)
- AC50 (cells [3]): > 70 µM (inactive)
- AC50 (cells [4]): > 52 µM (inactive)

Compound: Oc1ccc(Cl)cc1CNc1cccc2cccnc12
- EC50 [5]: 23.9 µM (active)
- EC50 (Streptokinase A): > 150 µM (not active)
- EC50 (Streptococcus): > 150 µM (not active)
- AC50 (Caspase-6): 48.4 µM (active)

Compound: COc1ccccc1NS(=O)(=O)c1cccc(NC(=O)Nc2ccccc2)c1
- IC50 [6]: 1.27 µM (active)
- IC50 [7]: 48.8 µM (inactive)
- IC50 [8]: 0.644 µM (active)
- IC50 [9]: 64.2 µM (inactive)

Compound: Cc1csc(SCC(=O)Nc2sccc2C#N)n1
- EC50 [10]: > 67.6 µM (inactive)
- EC50 (cells [11]): > 67.6 µM (inactive)

Compound: COC(=O)c1ccc(NC(=O)CSc2ccc(-c3ccccn3)nn2)cc1
- IC50 [12]: 35.9 µM (inactive)
- IC50 (Steroidogenic factor 1): 35.9 µM (inactive)
- IC50 [13]: 35.9 µM (inactive)
- AC50 [14]: 115 µM (active)

Compound: Cc1ccc(C(=O)NNC(=S)NC(=O)c2ccco2)cc1
- EC50 [5]: 1.87 µM (active)
- EC50 (Streptococcus): 8.89 µM (active)
- IC50 (Vero [15]): 23.6 µM (active)
- CC50 (Vero [16]): > 25 µM (active)
- EC50 [17]: 7.87 µM (active)
- IC50 [18]: > 122 µM (inactive)

Compound: C[C@@H]1CN([C@@H](C)CO)S(=O)(=O)c2ccc(C#CC3CC3)cc2O[C@H]1CN(C)CC1CCOCC1
- AC50 (HeLa): > 52 µM (inactive)
- AC50 (HEK293): 31.7 µM (active)
- AC50 [19]: 31.7 µM (active)

Compound: Cc1cccc(C(=O)Nc2cccc(NC(=O)c3ccc(C(C)(C)C)cc3)c2)c1
- IC50 [20]: 32.8 µM (active)
- IC50 [21]: 0.184 µM (active)

Compound: CCn1nc(C)c(CNC(=O)c2ccc(OC)c(OC3CCN(C(C)C)CC3)c2)c1C
- IC50 [22]: 1.75 µM (active)

Compound: CS(=O)(=O)N(CC(=O)N1CCc2ccccc21)c1ccccc1Cl
- EC50 [23]: 10 µM (inconclusive)

Compound: CC(C)CNc1ccnc(NCc2csc(-c3ccccc3)n2)n1
- AC50 [24]: 5.54 µM (active)
- AC50 [25]: 4.74 µM (active)

Compound: O=C(O)C1CCCCC1C(=O)N1CCc2ccccc2C1CN1Cc2ccccc2C1=O (stereo not drawn)
- AC50 [26]: 91.2 µM (active)
- AC50 [27]: 39.1 µM (active)

Compound: FC(F)(F)Oc1ccccc1-c1nnc(SCc2ccccc2)o1
- AC50 [28]: > 52 µM (inactive)

Compound: Cc1noc(C)c1S(=O)(=O)Nc1ccc2c(c1)C(=O)N([C@H](C)CO)C[C@H](C)[C@H](CN(C)Cc1ccc3c(c1)OCO3)OCCCC[C@@H](C)O2
- AC50 [29]: 15.7 µM (active)
